Series [1] deals with Aspergillus fumigatus strain IFM0063. The series is described as follows: Minimum Inhibitory Concentration (MIC), agar plate dilution method. The class given is cell-based. To be noted: Sabouraud's dextrose agar, 30°C for 2 days, visual growth. Here is the method:
(§1) MIC measurements were conducted by an agar plate dilution method. Stated specifically, Aspergillus fumigatus strains IFM0063 and IFM4942 were cultured on a potato dextrose agar medium at 27°C for 10 days, and the growing conidia were suspended in a sterile physiological saline containing 0.05% Tween 80 to give a concentration of 10⁸ - 10⁹ conidia per ml. The suspension was conditioned in a Sabouraud's dextrose broth medium at a concentration of 10⁵ spores per ml and a 5-µl aliquot of the culture was inoculated into a drug-containing Sabouraud's dextrose agar medium and cultured at 30°C for 2 days. The growth of fungi was observed visually and the minimum concentration of the test drug that could inhibit the fungal growth was designated as its MIC.

Series [2] relates to Aspergillus fumigatus strain IFM4942. The series is described as above. The format is cell-based. To be noted: Sabouraud's dextrose agar, 30°C for 2 days, visual growth. On the procedure:
as §1

In series [3] the test system is Candida albicans strain IFM40009. The series can be described thus: Treatment of infection, protocol 2: mice infected with Candida albicans, oral treatment, survival. The format is in vivo. To be noted: ICR male mice, i.v. infection 1 × 10⁶ cells, oral once after an hour of infection, survival at 7th day, Litchfield-Wilcoxon. On the procedure: (§2) Mice infected with Candida albicans were administered selected compounds of the invention orally and their therapeutic effect was measured. Stated specifically, ICR male mice (4-wk old) in groups each consisting of 10 animals were injected with Candida albicans strain IFM40009 by injecting it into the tail vein at a concentration of 1 × 10⁶ cells per animal. Each test compound was administered orally to the mice once after an hour of infection. The number of mice that survived at the 7th day of the infection was counted (the day of infection was day "zero") and the ED₅₀ of each test compound was calculated by the Litchfield-Wilcoxon method to estimate its therapeutic effect.

Series [4] has as its system Aspergillus fumigatus strain IFM41944. The series can be described thus: Treatment of infection, protocol 1: mice infected with Aspergillus fumigatus, oral treatment, survival. As to conditions: for ED50: Aspergillus fumigatus, IFM41944, ICR male mice, i.v. infection 1 × 10⁷ conidia, oral one hour after infection and following four days once a day, survival at 7th day, Litchfield-Wilcoxon, read-out: ED₅₀. The format is in vivo. On the procedure: as §2, with “with Aspergillus fumigatus” for “with Candida albicans”, “strain IFM41944” for “strain IFM40009”, “× 10⁷ conidia” for “× 10⁶ cells”, “mice one hour” for “mice once”, “after the infection and for the following four continuous days on a once-a-day basis.” for “after an hour of infection.”

The nature of series [5]: Toxicity test, repeated oral administration to mice. To be noted: 4-wk old mice, 5 consecutive days, 100 mg/kg. The class given is in vivo. Here is the method:
The four selected compounds of the invention (those prepared in Examples 1, 2, 9 and 30) were administered orally to 4-wk old mice for 5 consecutive days at a dose of 100 mg/kg.

For series [6], the system named is Candida albicans strain IFM40009. The series can be described thus: Treatment of infection, protocol 3: cyclophosphamide-immunosuppressed mice infected with Candida albicans, oral treatment, survival. The format is in vivo. To be noted: ICR male mice immunosuppressed with cyclophosphamide 100 mg/kg i.p. twice, i.v. infection 1 × 10⁶ cells, oral once after an hour of infection, survival at 7th day, read-out: ED₅₀. Here is the method: Experimentally prepared immunosuppressed mice were infected with Candida albicans; they were then administered selected compounds of the invention orally and the therapeutic effect of the compounds was measured.
Stated specifically, ICR male mice (4-wk old) in groups each consisting of 10 animals were administered cyclophosphamide intraperitoneally at a dose of 100 mg/kg; four days later, the mice were similarly administered cyclophosphamide intraperitoneally to be rendered experimentally immunosuppressed. Simultaneously with the second shot of cyclophosphamide, Candida albicans strain IFM40009 was administered to the tail vein of each animal at a concentration of 1 × 10⁶ cells per animal to induce infection. Each test compound was administered orally to the mice once after an hour of infection.
The number of mice that survived at the 7th day of the infection was counted (the day of infection was day "zero") and the ED₅₀ of each test compound was calculated by the Litchfield-Wilcoxon method to estimate its therapeutic effect.

The mark [7] stands for this setting: Aspergillus fumigatus, IFM0063, 48 h, read-out: MIC.
Setting [8] is: Aspergillus fumigatus, IFM4942, 48 h, read-out: MIC.

In brackets after ≈: the same amount, converted by molar mass. Where two headings read alike, the source gives them in different places.

As usually defined, the MIC is the lowest concentration found to suppress growth.

With `CC(=NO)C(C)(C)C(O)(Cn1cncn1)c1ccc(F)cc1F` (stereo not shown) [Example 29], the minimal inhibitory concentration (MIC) in series [1] (setting [7]) turned out to be 6.25 µg/mL (≈ 19.3 µM); in series [2] (setting [8]), 12.5 µg/mL (≈ 38.5 µM).

In the case of `CCC(=NOCSC)C1(C(O)(Cn2cncn2)c2ccc(F)cc2F)CC1` (stereo not shown) [Example 53], the results for the minimal inhibitory concentration (MIC) in series [1] (setting [7]) and in series [2] (setting [8]) were 1.56 µg/mL (≈ 3.93 µM) and 3.13 µg/mL (≈ 7.89 µM), respectively. The same compound showed an ED50 in series [3] of 13.5 mg/kg.

Consider `CCC(=NOC)C1(C(O)(Cn2cncn2)c2ccc(F)cc2F)CC1` (stereo not shown) [Example 11], for which the minimum inhibitory concentration (MIC) in series [1] (setting [7]) and in series [2] (setting [8]) was 3.13 µg/mL (≈ 8.93 µM) throughout.

`COC(OC)ON=C(C(C)C)C1(C(O)(Cn2cncn2)c2ccc(F)cc2F)CC1` (stereo not shown) [Example 72, 1-[1-[1-(2,4-difluorophenyl)-1-hydroxy-2-(1H-1,2,4-triazol-1-yl)ethyl]cyclopropyl]-2-methyl-1-propanone O-(dimethoxymethyl)oxime]: the ED50 in series [3] was determined as 13.5 mg/kg.

For `CCCC(=NOCn1cncn1)C1(C(O)(Cn2cncn2)c2ccc(F)cc2F)CC1` (stereo not shown) [Example 46], the ED50 in series [3] is 15.7 mg/kg.

With `CC(C)C(=NOCC#N)C1(C(O)(Cn2cncn2)c2ccc(F)cc2F)CC1` (stereo not shown) [Example 40], the MIC in series [1] (setting [7]) and in series [2] (setting [8]) was 12.5 µg/mL (≈ 32.1 µM) throughout.

Turning to `CSCON=C(C(C)C)C1(C(O)(Cn2cncn2)c2ccc(F)cc2F)CC1` (stereo not shown) [Example 41], the minimal inhibitory concentration (MIC) in series [1] (setting [7]) and in series [2] (setting [8]) was 12.5 µg/mL (≈ 30.5 µM) throughout.

Regarding `CCCC(=NOC)C1(C(O)(Cn2cncn2)c2ccc(F)cc2F)CC1` (stereo not shown) [Example 9], the MIC in series [1] (setting [7]) and in series [2] (setting [8]) was 6.25 µg/mL (≈ 17.2 µM) in each case. Moreover, the ED50 in series [4] amounted to 20.2 mg/kg. Also, the evidence for abnormality result in series [5] is reported as “no evidence for abnormality”.

With `CCCC(=NOCOC)C1(C(O)(Cn2cncn2)c2ccc(F)cc2F)CC1` (stereo not shown) [Example 8], the figures for the MIC in series [1] (setting [7]) and in series [2] (setting [8]) were 12.5 µg/mL (≈ 31.7 µM) and 25 µg/mL (≈ 63.4 µM), respectively. Further, the ED50 in series [4] came out at 27.7 mg/kg.

`COC(C)(C)ON=C(C(C)C)C1(C(O)(Cn2cncn2)c2ccc(F)cc2F)CC1` (stereo not shown) [Example 74, 1-[1-[1-(2,4-difluorophenyl)-1-hydroxy-2-(1H-1,2,4-triazol-1-yl)ethyl]cyclopropyl]-2-methyl-1-propanone O-(1-methoxy-1-methylethyl)oxime] displayed an ED50 in series [3] of 8.9 mg/kg.

For the compound `CCC(=NOCOC)C1(C(O)(Cn2cncn2)c2ccc(F)cc2F)CC1` (stereo not shown) [Example 10], the minimum inhibitory concentration (MIC) in series [1] (setting [7]) turned out to be 6.25 µg/mL (≈ 16.4 µM); in series [2] (setting [8]), 12.5 µg/mL (≈ 32.9 µM).

Take `COCON=C(C(C)C)C1(C(O)(Cn2cncn2)c2ccc(F)cc2F)CC1` (single isomer, unassigned; (-)) [Example 4, (-)-1-[1-[1-(2,4-difluorophenyl)-1-hydroxy-2-(1H-1,2,4-triazol-1-yl)ethyl]cyclopropyl]-2-methyl-1-propanone O-(methoxymethyl)oxime]: the MIC in series [1] and in series [2] was 12.5 µg/mL (≈ 31.7 µM) in each case.

On to `CON=C(C(C)C)C1(C(O)(Cn2cncn2)c2ccc(F)cc2F)CC1` (single isomer, unassigned; (-)) [Example 6, (-)-1-[1-[1-(2,4-difluorophenyl)-1-hydroxy-2-(1H-1,2,4-triazol-1-yl)ethyl]cyclopropyl]-2-methyl-1-propanone O-methyl oxime], for which the MIC in series [1] (setting [7]) and in series [2] (setting [8]) was 3.13 µg/mL (≈ 8.59 µM) each time.

The compound `COC(C)(OC)ON=C(C(C)C)C1(C(O)(Cn2cncn2)c2ccc(F)cc2F)CC1` (stereo not shown) [Example 73, 1-[1-[1-(2,4-difluorophenyl)-1-hydroxy-2-(1H-1,2,4-triazol-1-yl)ethyl]cyclopropyl]-2-methyl-1-propanone O-(1-dimethoxyethyl)oxime] gave an ED50 in series [3] of 5.8 mg/kg.

`CCON=C(C(C)C)C1(C(O)(Cn2cncn2)c2ccc(F)cc2F)CC1` (stereo not shown) [Example 38]: the minimum inhibitory concentration (MIC) in series [1] (setting [7]) and in series [2] (setting [8]) was 12.5 µg/mL (≈ 33 µM) in each case.

For the compound `CCCCON=C(CC)C1(C(O)(Cn2cncn2)c2ccc(F)cc2F)CC1` (stereo not shown) [Example 56], the minimum inhibitory concentration (MIC) in series [1] (setting [7]) and in series [2] (setting [8]) was 6.25 µg/mL (≈ 15.9 µM) each time. This compound displayed an ED50 in series [3] of 14.7 mg/kg.

In the case of `COCON=C(C1CC1)C1(C(O)(Cn2cncn2)c2ccc(F)cc2F)CC1` (stereo not shown) [Example 15], the MIC in series [1] (setting [7]) and in series [2] (setting [8]) was 12.5 µg/mL (≈ 31.9 µM) in each case.

Consider `OC(Cn1cncn1)(Cn1cncn1)c1ccc(F)cc1F` [Fluconazole, fluconazole, reference compound], for which the MIC in series [1] (setting [7]) and in series [2] (setting [8]) was above 100 µg/mL each time. The ED50 in series [4] was above 100 mg/kg; in series [3], 11.7 mg/kg; in series [6], 54.4 mg/kg. For the same compound, in series [4] (doses up to 100 mg/kg, oral, mice), the “antimycotic action in Aspergillus fumigatus infected animal models” value is “did not show any antimycotic action”.

`COC(C)ON=C(C(C)C)C1(C(O)(Cn2cncn2)c2ccc(F)cc2F)CC1` (stereo not shown) [Example 75, 1-[1-[1-(2,4-difluorophenyl)-1-hydroxy-2-(1H-1,2,4-triazol-1-yl)ethyl]cyclopropyl]-2-methyl-1-propanone O-(1-methoxyethyl)oxime] came in with an ED50 in series [3] of 8.6 mg/kg.

As for `CCC(=NOC)C(C)(C)C(O)(Cn1cncn1)c1ccc(F)cc1F` (stereo not shown) [Example 22], the minimal inhibitory concentration (MIC) amounted to 1.56 µg/mL (≈ 4.43 µM) in series [1] (setting [7]) and 3.13 µg/mL (≈ 8.88 µM) in series [2] (setting [8]).

`CCC(=NOCCBr)C1(C(O)(Cn2cncn2)c2ccc(F)cc2F)CC1` (stereo not shown) [Example 55]: the MIC in series [1] (setting [7]) and in series [2] (setting [8]) was 3.13 µg/mL (≈ 7.06 µM) in each case. Besides, the ED50 in series [3] was found to be 14.7 mg/kg.

`COCON=C(C(C)C)C1(C(O)(Cn2cncn2)c2ccc(F)cc2F)CC1` (stereo not shown) [Example 1, 1-[1-[1-(2,4-difluorophenyl)-1-hydroxy-2-(1H-1,2,4-triazol-1-yl)ethyl]cyclopropyl]-2-methyl-1-propanone O-(methoxymethyl)oxime]: the MIC in series [1] (setting [7]) and in series [2] (setting [8]) was 25 µg/mL (≈ 63.4 µM) throughout. Also, the ED50 in series [4] is 30.3 mg/kg; in series [6] it was 4.9 mg/kg. For the same compound, the evidence for abnormality result in series [5] is given as “no evidence for abnormality”.

Compound `CCC(=NOCn1cncn1)C1(C(O)(Cn2cncn2)c2ccc(F)cc2F)CC1` (stereo not shown) [Example 58] gave an ED50 in series [3] of 13.2 mg/kg.

As for `CCCON=C(C(C)C)C1(C(O)(Cn2cncn2)c2ccc(F)cc2F)CC1` (stereo not shown) [Example 42], the MIC in series [1] (setting [7]) and in series [2] (setting [8]) was 25 µg/mL (≈ 63.7 µM) in each case.

Consider `CC(C)C(=NOCCBr)C1(C(O)(Cn2cncn2)c2ccc(F)cc2F)CC1` (stereo not shown) [Example 44, 1-[1-[1-(2,4-difluorophenyl)-1-hydroxy-2-(1H-1,2,4-triazol-1-yl)ethyl]cyclopropyl]-2-methyl-1-propanone O-(2-bromoethyl)oxime], for which the MIC in series [1] (setting [7]) and in series [2] (setting [8]) was 12.5 µg/mL (≈ 27.3 µM) each time. In addition, the ED50 in series [3] is 14.6 mg/kg.

With `CON=C(C)C(C)(C)C(O)(Cn1cncn1)c1ccc(F)cc1F` (stereo not shown) [Example 21], the minimal inhibitory concentration (MIC) in series [1] (setting [7]) and in series [2] (setting [8]) was 3.13 µg/mL (≈ 9.25 µM) each time.

Regarding `C#CCON=C(CC)C1(C(O)(Cn2cncn2)c2ccc(F)cc2F)CC1` (stereo not shown) [Example 51], the MIC in series [1] (setting [7]) and in series [2] (setting [8]) was 3.13 µg/mL (≈ 8.36 µM) throughout. The compound further came in with an ED50 in series [3] of 11.3 mg/kg.

As to `CCC(=NOCc1ccncc1)C1(C(O)(Cn2cncn2)c2ccc(F)cc2F)CC1` (stereo not shown) [Example 59], the MIC in series [1] (setting [7]) and in series [2] (setting [8]) was 6.25 µg/mL (≈ 14.6 µM) each time. In series [3], this compound yielded an ED50 of 10.7 mg/kg.

In the case of `CCC(C)n1ncn(-c2ccc(N3CCN(c4ccc(OCC5COC(Cn6cncn6)(c6ccc(Cl)cc6Cl)O5)cc4)CC3)cc2)c1=O` (stereo not shown) [Itraconazole, itraconazole, reference compound], the ED50 in series [4] is above 100 mg/kg.

(Values after patent EP0670315A1, “Triazole oxime derivatives having antimycotic acitivity” (priority 1994, dated 1995).)
